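Results reflect a 48-hour exposure of cells in 96-well plates to compound at five concentrations. GI50 marks 50% less growth. TGI marks complete inhibition of growth.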 Some results are limits rather than exact numbers.

Some test systems named below: OVCAR-8 ovarian; UACC-62 melanoma; SN12C renal; HS 578T breast; BT-549 breast; SF-539 CNS; CCRF-CEM leukemia; NCI-H522 lung; SK-OV-3 ovarian; HT29 colon.
What all share (experiment): growth of human tumour cells (NCI), 48 h

`COc1cc2c(cc1C[N+](C)(C)CSc1ccccc1)-c1ccccc1CC2`: the TGI is 14.6 µM in the assay on OVCAR-8 ovarian; 7.79 µM in the assay with UACC-62 melanoma; 19.2 µM in the assay on SN12C renal; 19.3 µM with HS 578T breast; 15.5 µM in the assay with BT-549 breast; 20.6 µM in the assay on SF-539 CNS. The TGI in the assay with CCRF-CEM leukemia was found to be 14.3 µM; in the assay on NCI-H522 lung, 10.7 µM; in the assay with SK-OV-3 ovarian it was 26.1 µM; in the assay on HT29 colon it was 13.1 µM.
For the molecule `Cn1ccnc1Sc1ccc(/C=N/NC(=O)c2ccccc2O)cc1[N+](=O)[O-]`, the TGI in the assay on OVCAR-8 ovarian, with UACC-62 melanoma, with SN12C renal, in the assay with HS 578T breast, in the assay with BT-549 breast and in the assay with SF-539 CNS was over 100 µM throughout. Besides, the TGI in the assay with CCRF-CEM leukemia, in the assay on NCI-H522 lung, with SK-OV-3 ovarian and in the assay with HT29 colon was over 100 µM each time.
Turning to `O=C(CSc1nc2ccccc2[nH]1)Nc1ccc(-c2nc3ccccc3s2)c(Cl)c1`, the GI50 is 3.35 µM in the assay on OVCAR-8 ovarian; 4.5 µM in the assay on HS 578T breast; 7.69 µM in the assay on BT-549 breast; 1.7 µM in the assay on SF-539 CNS; over 100 µM with CCRF-CEM leukemia; 2.72 µM in the assay with SK-OV-3 ovarian. In addition, in the assay with HT29 colon, the GI50 was 4.79 µM. Besides, the TGI is over 100 µM with OVCAR-8 ovarian; over 100 µM with HS 578T breast; over 100 µM in the assay on BT-549 breast; 3.25 µM in the assay with SF-539 CNS; over 100 µM in the assay with CCRF-CEM leukemia; 12 µM in the assay on SK-OV-3 ovarian. In the assay with HT29 colon, this molecule registered a TGI of over 100 µM.
Turning to `Cc1ccc2[nH]cc(-c3nc(-c4c[nH]c5ncccc45)cs3)c2c1`, the GI50 in the assay with OVCAR-8 ovarian, in the assay with UACC-62 melanoma, with SN12C renal, in the assay with HS 578T breast, in the assay with BT-549 breast and with SF-539 CNS was over 100 µM each time. The GI50 in the assay with CCRF-CEM leukemia, in the assay on NCI-H522 lung and in the assay with SK-OV-3 ovarian was over 100 µM throughout. For the same molecule, the TGI in the assay with OVCAR-8 ovarian, in the assay on UACC-62 melanoma, in the assay with SN12C renal, in the assay on HS 578T breast, in the assay with BT-549 breast and with SF-539 CNS was over 100 µM throughout. In addition, the TGI in the assay with CCRF-CEM leukemia, with NCI-H522 lung and with SK-OV-3 ovarian was over 100 µM each time.
`S=C1c2ccccc2NC(=NC2CCCC2)C2CSCN12` (stereo not given): the TGI in the assay with OVCAR-8 ovarian, in the assay with UACC-62 melanoma, with SN12C renal, in the assay on HS 578T breast, in the assay on BT-549 breast and in the assay with CCRF-CEM leukemia was over 100 µM in each case. For the same molecule, the TGI with NCI-H522 lung, in the assay with SK-OV-3 ovarian and in the assay on HT29 colon was over 100 µM throughout.
For `CC(C)(CO)CNc1cc(=O)[nH]c(N)n1`, the TGI with OVCAR-8 ovarian, in the assay with UACC-62 melanoma, in the assay with SN12C renal, with HS 578T breast, in the assay with BT-549 breast and in the assay with CCRF-CEM leukemia was over 100 µM each time. The TGI in the assay with NCI-H522 lung, in the assay with SK-OV-3 ovarian and in the assay on HT29 colon was over 100 µM throughout.
For `CCOC(C[Se]CC(OCC)OCC)OCC`, the TGI is over 100 µM in the assay with OVCAR-8 ovarian; over 100 µM with UACC-62 melanoma; 45.9 µM in the assay on HS 578T breast; 94 µM in the assay on BT-549 breast; 62.4 µM with SF-539 CNS; 95.9 µM in the assay on CCRF-CEM leukemia. The TGI with NCI-H522 lung, with SK-OV-3 ovarian and in the assay with HT29 colon was over 100 µM in each case.
Take `Cn1c(=O)c2c(nc(NCCCCl)n2CC(=O)O)n(C)c1=O`: the TGI in the assay on OVCAR-8 ovarian, with UACC-62 melanoma, with SN12C renal, in the assay on HS 578T breast, with BT-549 breast and in the assay on CCRF-CEM leukemia was over 100 µM in each case. In addition, the TGI in the assay with NCI-H522 lung, with SK-OV-3 ovarian and with HT29 colon was over 100 µM each time.
As for `Brc1ccc(N=NN2CCCCC2)cc1`, the TGI with OVCAR-8 ovarian, with UACC-62 melanoma, with SN12C renal, in the assay on HS 578T breast, in the assay with BT-549 breast and in the assay with SF-539 CNS was over 100 µM each time. Besides, the TGI is 56.9 µM with CCRF-CEM leukemia, over 100 µM in the assay on NCI-H522 lung and over 100 µM with SK-OV-3 ovarian.
As to `Cc1ccc(C)n2c1nc1ccc3ccccc3c12`, the TGI in the assay on OVCAR-8 ovarian, in the assay with UACC-62 melanoma, in the assay with SN12C renal, with HS 578T breast, with BT-549 breast and in the assay with SF-539 CNS was over 100 µM each time. Moreover, the TGI in the assay with CCRF-CEM leukemia, with SK-OV-3 ovarian and in the assay with HT29 colon was over 100 µM throughout.
Regarding `Cc1cc2c(cc1Cl)Sc1nnc(Nc3ccccc3)n1S2(=O)=O`, the TGI in the assay on OVCAR-8 ovarian is 20.8 µM; with HS 578T breast, 12.6 µM; in the assay on BT-549 breast it was 34 µM; in the assay on SF-539 CNS, 14.2 µM; with NCI-H522 lung it was 14.2 µM; in the assay with HT29 colon, over 100 µM.
Turning to `COc1ccc(N2C=Nn3c(nc4sc(C)c(C)c4c3=O)C2)cc1`, the TGI in the assay on OVCAR-8 ovarian, with UACC-62 melanoma, in the assay with SN12C renal, with HS 578T breast, in the assay with BT-549 breast and in the assay with CCRF-CEM leukemia was over 100 µM each time. The TGI in the assay with NCI-H522 lung, with SK-OV-3 ovarian and in the assay with HT29 colon was over 100 µM throughout.
As for `CCCC/C=C1\CCC(CN2CCCCC2)C1=O` (stereo not given), the TGI in the assay with OVCAR-8 ovarian was 33.1 µM; in the assay with UACC-62 melanoma, 24.8 µM; in the assay on SN12C renal it was 25.9 µM; with HS 578T breast, over 100 µM; in the assay on BT-549 breast it was over 100 µM; in the assay with SF-539 CNS it was 36.1 µM. In addition, the TGI was 16.2 µM in the assay with CCRF-CEM leukemia, over 56.2 µM in the assay on SK-OV-3 ovarian and 23.7 µM with HT29 colon.

The record behind these values is PubChem BioAssay (NCI).
